Data published in patent publication EP2305680A2, “Novel salts of (1S,4R)-cis-4-[2-amino-6-(cyclopropylamino)-9H-purin-9-yl]-2-cyclopentene-1-methanol” (AUROBINDO PHARMA LIMITED, priority 2009, dated 2011).
In brackets after ≈: the same amount, converted by molar mass. Read-outs that look alike come from different tables or passages of the source.

Test: saturation solubility in various solvent systems
Type: physicochemical
Description: Solubility is the property of a solid, liquid, or gaseous chemical substance called solute to dissolve in a liquid solvent to form a homogeneous solution of the solute in the solvent. […] The saturation solubility of the compounds according to the present invention is measured in various solvent systems including simulated gastric fluid, pH 4.5 buffer, pH 6.8 buffer solution and pH 7.2 buffer solution. The compounds according to the present invention show better solubility as compared to abacavir sulphate in all solvent systems. Table- 1: Comparison of saturation solubility of Abacavir malonate with Abacavir sulphate (marketed salt)

[1] = solvent: pH 4.5 Sodium acetate buffer
[2] = solvent: pH 6.8 Phosphate buffer
[3] = solvent: pH 7.2 Phosphate buffer

Row | SMILES | Solubility (0.1 N HCl, simulated gastric fluid, thermodynamic from solid, solvent: O.1N HC1, read-out: Solubility) | Solubility [1] | Solubility [2] | Solubility [3] | Solubility (water, thermodynamic from solid, solvent: Water, read-out: Solubility) | Solubility (0.01n hcl, solvent: O.O1N HC1, read-out: Solubility) | Solubility (0.1n hcl, simulated gastric fluid, thermodynamic from solid, solvent: O.1N HC1, read-out: Solubility) | Solubility (solvent: Water)
1 | Nc1nc(NC2CC2)c2ncn([C@H]3C=C[C@@H](CO)C3)c2n1 [Abacavir Sulphate, reference compound] | 93.1 mg/mL | 112.6 mg/mL | 89.5 mg/mL | 124.0 mg/mL | 89.2 mg/mL | – | – | –
2 | Nc1nc(NC2CC2)c2ncn([C@H]3C=C[C@@H](CO)C3)c2n1 [Abacavir Malonate, (1S,4R)-4-[2-AMINO-(6-CYCLOPROPYLAMINO)-9H-PURIN-9-YL]-2-CYCLOPENTENE-1-METHANOL MALONATE] | – | 403.6 mg/mL (≈ 1410 mM) | 425.2 mg/mL (≈ 1480 mM) | 453.5 mg/mL (≈ 1580 mM) | – | 733 mg/mL (≈ 2560 mM) | 368 mg/mL (≈ 1290 mM) | 116.2 mg/mL (≈ 406 mM)
